Patent publication US8562949B2, “Radiolabeled dihydrotetrabenazine derivatives and their use as imaging agents” (The Trustees of the University of Pennsylvania, priority 2006, dated 2013)
pKi: −log10 of the molar value.

Tests used:
VMAT2 = VMAT2 (Rattus norvegicus, UniProt Q01827); test: Competition for [3H](±)TBZ binding in rat striatal homogenates; set-up: The basal forebrain regions of rat and mouse brains were then dissected; from tissue; host or cells: rat striatum / basal forebrain homogenate; details: [3H](±)-TBZ, Kd […] used for calculation
DAT sites = DAT sites (Mus musculus, UniProt Q61327); test: Dual isotope experiment in lesioned mice, [125I]IPT
Source text: Thirty minutes after injection, the mice were sacrificed and the brains removed. Different regions corresponding to striatum (ST), hippocampus (HP), cerebellum (CB), and cortex (CX) were dissected. In particular, the lesioned region was separated from non-lesioned area of the striatal tissues. Samples were counted in a gamma counter with two different window settings for F-18 and I-125, respectively, to obtain the regional distribution of each tracer.
To measure the degree of lesion, a dual-isotope experiment comparing the striatal uptakes in lesioned vs. unlesioned sites using [^18F]FP-DTBZ was performed. A marker [^125I]IPT (selective for dopamine transporters) was injected simultaneously.

[1] = lesioned Mouse 1, 30 min post-injection
[2] = lesioned Mouse 2, 30 min post-injection
[3] = lesioned Mouse 3, 30 min post-injection
[4] = lesioned Mouse 4, 30 min post-injection

DAT sites, sequence (Q61327 whole entry): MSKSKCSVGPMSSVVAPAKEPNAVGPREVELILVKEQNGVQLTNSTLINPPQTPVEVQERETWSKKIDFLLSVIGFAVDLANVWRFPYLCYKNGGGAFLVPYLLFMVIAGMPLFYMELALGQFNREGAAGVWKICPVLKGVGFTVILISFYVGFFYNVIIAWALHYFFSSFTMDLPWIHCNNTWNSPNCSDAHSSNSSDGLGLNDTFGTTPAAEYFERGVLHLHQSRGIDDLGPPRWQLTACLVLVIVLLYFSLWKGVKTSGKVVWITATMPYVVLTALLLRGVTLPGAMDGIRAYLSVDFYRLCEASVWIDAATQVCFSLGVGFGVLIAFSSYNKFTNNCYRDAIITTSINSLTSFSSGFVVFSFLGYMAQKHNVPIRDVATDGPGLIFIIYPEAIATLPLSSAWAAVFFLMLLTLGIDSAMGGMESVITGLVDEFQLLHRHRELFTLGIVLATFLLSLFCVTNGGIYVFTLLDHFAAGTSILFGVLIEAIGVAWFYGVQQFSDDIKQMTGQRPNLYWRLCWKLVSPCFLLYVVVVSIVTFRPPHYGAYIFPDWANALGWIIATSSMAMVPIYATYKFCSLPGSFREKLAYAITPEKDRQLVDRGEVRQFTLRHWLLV
VMAT2, sequence (Q01827 whole entry): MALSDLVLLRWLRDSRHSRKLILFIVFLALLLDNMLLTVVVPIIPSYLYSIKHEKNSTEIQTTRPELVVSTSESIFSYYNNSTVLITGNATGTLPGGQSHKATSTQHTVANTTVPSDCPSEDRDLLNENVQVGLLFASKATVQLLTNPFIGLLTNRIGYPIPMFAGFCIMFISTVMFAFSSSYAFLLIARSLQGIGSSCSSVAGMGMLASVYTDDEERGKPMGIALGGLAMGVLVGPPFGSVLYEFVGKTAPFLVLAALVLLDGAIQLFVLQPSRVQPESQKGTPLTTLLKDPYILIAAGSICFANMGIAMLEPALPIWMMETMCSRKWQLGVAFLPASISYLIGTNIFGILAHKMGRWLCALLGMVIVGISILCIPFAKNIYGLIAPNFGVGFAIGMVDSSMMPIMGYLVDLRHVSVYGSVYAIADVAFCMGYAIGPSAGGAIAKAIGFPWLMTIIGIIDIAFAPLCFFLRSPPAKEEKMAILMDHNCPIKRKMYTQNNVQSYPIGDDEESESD

Q: How did the pKi (VMAT2) turn out when COc1cc2c(cc1OCCCF)CCN1CC(CC(C)C)C(O)CC21 (single isomer, unassigned) [FP-(−)-DTBZ] was run?
A: < 5.52

Q: Which “% StrL/StrN” value (DAT sites; [1]) does the source give for COC(=O)C1C(c2ccc(Cl)cc2)CC2CCC1N2CC=CI (stereo not drawn) [[^125I]IPT, N-(3′-iodopropen-2′-yl)-2-beta-carbomethoxy-3-beta-(4-chlorophenyl)tropane] here?
A: 32.6%

Q: What about the “Regional brain distribution Cerebellum (CB)” value (DAT sites; [1]) of the same compound?
A: 0.96 % dose/g

Q: And the “Regional brain distribution Cortex” value (DAT sites; [1])?
A: 0.69 % dose/g

Q: What about the “Regional brain distribution Hippocampus” value (DAT sites; [1]) of the same compound?
A: 0.87 % dose/g

Q: And the “Regional brain distribution Hypothalamus” value (DAT sites; [1])?
A: 1.28 % dose/g

Q: What about the “Regional brain distribution Remainder” value (DAT sites; [1]) of the same compound?
A: 1.34 % dose/g

Q: And the “ratio vs. CB, Cerebellum (CB)” value (DAT sites; [1])?
A: 1.00

Q: What about the “ratio vs. CB, Cortex” value (DAT sites; [1]) of the same compound?
A: 0.72

Q: And the “ratio vs. CB, Hippocampus” value (DAT sites; [1])?
A: 0.91

Q: What about the “ratio vs. CB, Hypothalamus” value (DAT sites; [1]) of the same compound?
A: 1.34

Q: What about the “ratio vs. CB, Remainder” value (DAT sites; [1]) of the same compound?
A: 1.40

Q: What about the “ratio vs. CB, Stratum N” value (DAT sites; [1]) of the same compound?
A: 9.63

Q: What about the “ratio vs. CB, Striatum L” value (DAT sites; [1]) of the same compound?
A: 3.14

Q: What about the “% StrL/StrN” value (DAT sites; [2]) of the same compound?
A: 55.7%

Q: What about the “Regional brain distribution Cerebellum (CB)” value (DAT sites; [2]) of the same compound?
A: 0.77 % dose/g

Q: And the “Regional brain distribution Cortex” value (DAT sites; [2])?
A: 0.62 % dose/g

Q: What about the “Regional brain distribution Hippocampus” value (DAT sites; [2]) of the same compound?
A: 0.70 % dose/g

Q: What about the “Regional brain distribution Hypothalamus” value (DAT sites; [2]) of the same compound?
A: 1.22 % dose/g

Q: And the “Regional brain distribution Remainder” value (DAT sites; [2])?
A: 1.16 % dose/g

Q: And the “ratio vs. CB, Cerebellum (CB)” value (DAT sites; [2])?
A: 1.00

Q: What about the “ratio vs. CB, Cortex” value (DAT sites; [2]) of the same compound?
A: 0.80

Q: And the “ratio vs. CB, Hippocampus” value (DAT sites; [2])?
A: 0.90

Q: And the “ratio vs. CB, Hypothalamus” value (DAT sites; [2])?
A: 1.58

Q: And the “ratio vs. CB, Remainder” value (DAT sites; [2])?
A: 1.49

Q: What about the “ratio vs. CB, Stratum N” value (DAT sites; [2]) of the same compound?
A: 8.17

Q: What about the “ratio vs. CB, Striatum L” value (DAT sites; [2]) of the same compound?
A: 4.55

Q: And the “% StrL/StrN” value (DAT sites; [3])?
A: 52.3%

Q: And the “Regional brain distribution Cerebellum (CB)” value (DAT sites; [3])?
A: 0.81 % dose/g

Q: What about the “Regional brain distribution Cortex” value (DAT sites; [3]) of the same compound?
A: 0.66 % dose/g

Q: And the “Regional brain distribution Hippocampus” value (DAT sites; [3])?
A: 0.81 % dose/g

Q: And the “Regional brain distribution Hypothalamus” value (DAT sites; [3])?
A: 1.42 % dose/g

Q: What about the “Regional brain distribution Remainder” value (DAT sites; [3]) of the same compound?
A: 1.57 % dose/g

Q: What about the “ratio vs. CB, Cerebellum (CB)” value (DAT sites; [3]) of the same compound?
A: 1.00

Q: And the “ratio vs. CB, Cortex” value (DAT sites; [3])?
A: 0.81

Q: And the “ratio vs. CB, Hippocampus” value (DAT sites; [3])?
A: 1.00

Q: And the “ratio vs. CB, Hypothalamus” value (DAT sites; [3])?
A: 1.76

Q: What about the “ratio vs. CB, Remainder” value (DAT sites; [3]) of the same compound?
A: 1.95

Q: What about the “ratio vs. CB, Stratum N” value (DAT sites; [3]) of the same compound?
A: 11.3

Q: What about the “ratio vs. CB, Striatum L” value (DAT sites; [3]) of the same compound?
A: 5.90

Q: And the “% StrL/StrN” value (DAT sites; [4])?
A: 88.7%

Q: And the “Regional brain distribution Cerebellum (CB)” value (DAT sites; [4])?
A: 0.76 % dose/g

Q: And the “Regional brain distribution Cortex” value (DAT sites; [4])?
A: 0.87 % dose/g

Q: What about the “Regional brain distribution Hippocampus” value (DAT sites; [4]) of the same compound?
A: 0.62 % dose/g

Q: And the “Regional brain distribution Hypothalamus” value (DAT sites; [4])?
A: 0.99 % dose/g

Q: And the “Regional brain distribution Remainder” value (DAT sites; [4])?
A: 1.16 % dose/g

Q: What about the “ratio vs. CB, Cerebellum (CB)” value (DAT sites; [4]) of the same compound?
A: 1.00

Q: And the “ratio vs. CB, Cortex” value (DAT sites; [4])?
A: 1.15

Q: What about the “ratio vs. CB, Hippocampus” value (DAT sites; [4]) of the same compound?
A: 0.81

Q: And the “ratio vs. CB, Hypothalamus” value (DAT sites; [4])?
A: 1.31

Q: What about the “ratio vs. CB, Remainder” value (DAT sites; [4]) of the same compound?
A: 1.53

Q: What about the “ratio vs. CB, Stratum N” value (DAT sites; [4]) of the same compound?
A: 10.2

Q: What about the “ratio vs. CB, Striatum L” value (DAT sites; [4]) of the same compound?
A: 9.07
